Results published in US12331026B2 (NiKang Therapeutics, Inc., priority 2022, dated 2025).

Each compound was assayed against T1, CDK2 (Homo sapiens, UniProt P24941) (assay: Phospho-RB measurement in OVCAR3 cells (HTRF phospho-RB S807/811)). Details: phosphorylation of RB protein at S807/811, HTRF, 24 h compound treatment, 0.3 to 10,000 nM, read-out: pRb (uM).
T1 construct: endogenous in cells; host or cells: OVCAR3 cells
Format: cell-based
Summary of the method: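 IC50 values come from four-parameter logistic fits of the DMSO-normalised 665/620 nm TR-FRET ratio for phospho-RB (S807/811). Antibody detection ran 4 h at room temperature.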

Row | IC50 | SMILES
1 | 0.03 µM | O=S1(=O)CC2(CC(Nc3nccc(-c4sc(C5(C(F)(F)F)CCC5)nc4-c4cccc(NS(=O)(=O)c5c(F)cccc5C(F)(F)F)c4F)n3)C2)C1 [Example 84, N-(3-(5-(2-((2,2-dioxido-2-thiaspiro[3.3]heptan-6-yl)amino)-pyrimidin-4-yl)-2-(1-(trifluoromethyl)cyclobutyl)thiazol-4-yl)-2-fluorophenyl)-2-fluoro-6-(trifluoromethyl)benzenesulfonamide]
2 | 0.03 µM | O=S1(=O)CC2(CC(Nc3nccc(-c4sc(C5(C(F)(F)F)CC5)nc4-c4cccc(NS(=O)(=O)c5c(F)cccc5C(F)(F)F)c4F)n3)C2)C1 [Example 85, N-(3-(5-(2-((2,2-dioxido-2-thiaspiro[3.3]heptan-6-yl)amino)-pyrimidin-4-yl)-2-(1-(trifluoromethyl)cyclopropyl)thiazol-4-yl)-2-fluorophenyl)-2-fluoro-6-(trifluoromethyl)benzenesulfonamide]
3 | 0.04 µM | O=S1(=O)CC2(CC(Nc3nccc(-c4sc(C56CC(F)(C5)C6)nc4-c4cccc(NS(=O)(=O)c5c(F)cccc5C(F)(F)F)c4F)n3)C2)C1 [Example 86, N-(3-(5-(2-((2,2-dioxido-2-thiaspiro[3.3]heptan-6-yl)amino)-pyrimidin-4-yl)-2-(3-fluorobicyclo[1.1.1]pentan-1-yl)thiazol-4-yl)-2-fluorophenyl)-2-fluoro-6-(trifluoromethyl)benzenesulfonamide]
4 | 0.077 µM | CS(=O)(=O)[C@H]1CC[C@@H](Nc2nccc(-c3sc(C45CC(F)(C4)C5)nc3-c3cccc(NS(=O)(=O)c4c(F)cccc4C(F)(F)F)c3F)n2)CC1 [Example 87, 2-fluoro-N-(2-fluoro-3-(2-(3-fluorobicyclo[1.1.1]pentan-1-yl)-5-(2-(((1s,4s)-4-(methylsulfonyl)cyclohexyl)-amino)pyrimidin-4-yl)thiazol-4-yl)phenyl)-6-(trifluoromethyl)benzenesulfonamide]
5 | 0.09 µM | O=S1(=O)CC2(CC(Nc3nccc(-c4sc(C56CC(C(F)(F)F)(C5)C6)nc4-c4cccc(NS(=O)(=O)c5c(F)cccc5C(F)(F)F)c4F)n3)C2)C1 [Example 88, N-(3-(5-(2-((2,2-dioxido-2-thiaspiro[3.3]heptan-6-yl)amino)-pyrimidin-4-yl)-2-(3-(trifluoromethyl)bicyclo[1.1.1]pentan-1-yl)thiazol-4-yl)-2-fluorophenyl)-2-fluoro-6-(trifluoromethyl)-benzenesulfonamide]
6 | 0.12 µM | O=S1(=O)CC2(CC(Nc3nccc(-c4sc(C5(C(F)(F)F)CC5)nc4-c4cccc(NS(=O)(=O)c5c(F)cccc5F)c4F)n3)C2)C1 [Example 89, N-(3-(5-(2-((2,2-dioxido-2-thiaspiro[3.3]heptan-6-yl)amino)-pyrimidin-4-yl)-2-(1-(trifluoromethyl)cyclopropyl)thiazol-4-yl)-2-fluorophenyl)-2,6-difluorobenzenesulfonamide]
7 | 0.15 µM | O=S1(=O)CC2(CC(Nc3nccc(-c4sc(C56CC(C(F)(F)F)(C5)C6)nc4-c4cccc(NS(=O)(=O)c5c(Cl)cccc5C(F)(F)F)c4F)n3)C2)C1 [Example 91, 2-chloro-N-(3-(5-(2-((2,2-dioxido-2-thiaspiro[3.3]heptan-6-yl)amino)pyrimidin-4-yl)-2-(3-(trifluoromethyl)bicyclo-[1.1.1]pentan-1-yl)thiazol-4-yl)-2-fluorophenyl)-6-(trifluoromethyl)benzenesulfonamide]
8 | 0.04 µM | O=S1(=O)CC2(CC(Nc3nccc(-c4sc(C56CC(C(F)F)(C5)C6)nc4-c4cccc(NS(=O)(=O)c5c(F)cccc5C(F)(F)F)c4F)n3)C2)C1 [Example 92, N-(3-(2-(3-(difluoromethyl)bicyclo[1.1.1]pentan-1-yl)-5-(2-((2,2-dioxido-2-thiaspiro[3.3]heptan-6-yl)amino)pyrimidin-4-yl)thiazol-4-yl)-2-fluorophenyl)-2-fluoro-6-(trifluoromethyl)benzenesulfonamide]
9 | 0.04 µM | O=S1(=O)CC2C(C1)C2Nc1nccc(-c2sc(C34CC(C3)C4)nc2-c2cccc(NS(=O)(=O)c3c(F)cccc3F)c2F)n1 (centres unmarked) [Example 93, N-(3-(2-(bicyclo[1.1.1]pentan-1-yl)-5-(2-((3,3-dioxido-3-thiabicyclo[3.1.0]hexan-6-yl)amino)pyrimidin-4-yl)thiazol-4-yl)-2-fluorophenyl)-2,6-difluorobenzenesulfonamide]
10 | 0.28 µM | O=S1(=O)C[C@@H]2[C@H](C1)[C@@H]2Nc1nccc(-c2sc(N3C4CCC3CN(C3CC(F)(F)C3)C4)nc2-c2cccc(NS(=O)(=O)c3c(F)cccc3F)c2F)n1 [Example 94, N-(3-(2-(3-(3,3-difluorocyclobutyl)-3,8-diazabicyclo[3.2.1]octan-8-yl)-5-(2-(((1R,5S,6s)-3,3-dioxido-3-thiabicyclo[3.1.0]hexan-6-yl)amino)pyrimidin-4-yl)thiazol-4-yl)-2-fluorophenyl)-2,6-difluorobenzenesulfonamide]
11 | 0.13 µM | O=S1(=O)C[C@@H]2[C@H](C1)[C@H]2Nc1nccc(-c2sc(C3(C(F)F)CC3)nc2-c2cccc(NS(=O)(=O)c3c(F)cccc3F)c2F)n1 [Example 98, N-(3-(2-(1-(difluoromethyl)cyclopropyl)-5-(2-(((1R,5S,6r)-3,3-dioxido-3-thiabicyclo[3.1.0]hexan-6-yl)amino)pyrimidin-4-yl)thiazol-4-yl)-2-fluorophenyl)-2,6-difluorobenzenesulfonamide]
12 | 0.06 µM | O=S1(=O)C[C@@H]2[C@H](C1)[C@H]2Nc1nccc(-c2sc(C34CCC(CC3)C4)nc2-c2cccc(NS(=O)(=O)c3c(F)cccc3F)c2F)n1 [Example 99, N-(3-(2-(bicyclo[2.2.1]heptan-1-yl)-5-(2-(((1R,5S,6r)-3,3-dioxido-3-thiabicyclo[3.1.0]hexan-6-yl)amino)pyrimidin-4-yl)thiazol-4-yl)-2-fluorophenyl)-2,6-difluorobenzenesulfonamide]
13 | 0.1 µM | CC1(C)CCN1c1nc(-c2cccc(NS(=O)(=O)c3c(F)cccc3F)c2F)c(-c2ccnc(N[C@H]3[C@@H]4CS(=O)(=O)C[C@@H]43)n2)s1 [Example 100, N-(3-(2-(2,2-dimethylazetidin-1-yl)-5-(2-(((1R,5S,6r)-3,3-dioxido-3-thiabicyclo[3.1.0]hexan-6-yl)amino)pyrimidin-4-yl)thiazol-4-yl)-2-fluorophenyl)-2,6-difluorobenzenesulfonamide]
14 | 0.17 µM | C[C@H]1COC[C@H](C)N1c1nc(-c2cccc(NS(=O)(=O)c3c(F)cccc3F)c2F)c(-c2ccnc(N[C@H]3[C@@H]4CS(=O)(=O)C[C@@H]43)n2)s1 [Example 101, N-(3-(2-((3S,5S)-3,5-dimethylmorpholino)-5-(2-(((1R,5S,6r)-3,3-dioxido-3-thiabicyclo[3.1.0]hexan-6-yl)amino)pyrimidin-4-yl)thiazol-4-yl)-2-fluorophenyl)-2,6-difluorobenzenesulfonamide]
15 | 0.19 µM | O=S1(=O)C[C@@H]2[C@H](C1)[C@@H]2Nc1nccc(-c2sc(C34CC(C3)C4)nc2-c2cccc(NS(=O)(=O)c3c(F)cccc3C(F)(F)F)c2F)n1 [Example 102, N-(3-(2-(bicyclo[1.1.1]pentan-1-yl)-5-(2-(((1R,5S,6s)-3,3-dioxido-3-thiabicyclo[3.1.0]hexan-6-yl)amino)pyrimidin-4-yl)thiazol-4-yl)-2-fluorophenyl)-2-fluoro-6-(trifluoromethyl)benzenesulfonamide]
16 | 0.1 µM | O=S1(=O)C[C@@H]2[C@H](C1)[C@H]2Nc1nccc(-c2sc(C34CC(C3)C4)nc2-c2cccc(NS(=O)(=O)c3c(F)cccc3C(F)(F)F)c2F)n1 [Example 103, N-(3-(2-(bicyclo[1.1.1]pentan-1-yl)-5-(2-(((1R,5S,6r)-3,3-dioxido-3-thiabicyclo[3.1.0]hexan-6-yl)amino)pyrimidin-4-yl)thiazol-4-yl)-2-fluorophenyl)-2-fluoro-6-(trifluoromethyl)benzenesulfonamide]
17 | 0.08 µM | CS(=O)(=O)[C@H]1CC[C@H](Nc2nccc(-c3sc(C4(C(F)(F)F)CC4)nc3-c3cccc(NS(=O)(=O)c4c(F)cccc4C(F)(F)F)c3F)n2)CC1 [Example 104, 2-fluoro-N-(2-fluoro-3-(5-(2-(((1r,4r)-4-(methylsulfonyl)-cyclohexyl)amino)pyrimidin-4-yl)-2-(1-(trifluoromethyl)-cyclopropyl)thiazol-4-yl)phenyl)-6-(trifluoromethyl)benzenesulfonamide]
18 | 0.68 µM | O=S1(=O)C[C@@H]2[C@H](C1)[C@@H]2Nc1nccc(-c2sc(N3C4CCC3CN(C3CC(F)(F)C3)C4)nc2-c2cccc(NS(=O)(=O)c3c(F)cccc3F)c2F)n1 [Example 106, N-(3-(2-(3-(3,3-difluorocyclobutyl)-3,8-diazabicyclo[3.2.1]octan-8-yl)-5-(2-(((1R,5S,6s)-3,3-dioxido-3-thiabicyclo[3.1.0]hexan-6-yl)amino)pyrimidin-4-yl)thiazol-4-yl)-2-fluorophenyl)-2,6-difluorobenzenesulfonamide]
19 | 0.15 µM | O=S1(=O)C[C@@H]2[C@H](C1)[C@H]2Nc1nccc(-c2sc(N3C4CCC3CN(C3CC(F)(F)C3)C4)nc2-c2cccc(NS(=O)(=O)c3c(F)cccc3F)c2F)n1 [Example 107, N-(3-(2-(3-(3,3-difluorocyclobutyl)-3,8-diazabicyclo[3.2.1]octan-8-yl)-5-(2-(((1R,5S,6r)-3,3-dioxido-3-thiabicyclo[3.1.0]hexan-6-yl)amino)pyrimidin-4-yl)thiazol-4-yl)-2-fluorophenyl)-2,6-difluorobenzenesulfonamide]
20 | 0.1 µM | O=S1(=O)C[C@@H]2[C@H](C1)[C@@H]2Nc1nccc(-c2sc(N3C4CCC3CN(C3CC(F)(F)C3)C4)nc2-c2cccc(NS(=O)(=O)c3c(F)cccc3C(F)(F)F)c2F)n1 [Example 108, N-(3-(2-(3-(3,3-difluorocyclobutyl)-3,8-diazabicyclo[3.2.1]octan-8-yl)-5-(2-(((1R,5S,6s)-3,3-dioxido-3-thiabicyclo[3.1.0]hexan-6-yl)amino)pyrimidin-4-yl)thiazol-4-yl)-2-fluorophenyl)-2-fluoro-6-(trifluoromethyl)benzenesulfonamide]
